Patent US20240002326A1, “COMPOUNDS AND USE THEREOF IN METHODS OF TREATMENT” (The University of Queensland, priority 2016, published 2024)
“Also recorded” adds a separate entry of the source. *1 amine or outer side, *2 acyl side, *3 side chain or, on linkers, in order; H or OH if unused. Where a SMILES comes first, the peptide text is derived from it. Bridges are numbered along the chain shown (N, C = ends). Roman numbers before positions name the chains, in order. [ ]: non-standard residue; d: D form. Actinocin(9to1) = Cc1c2oc3c(C)ccc(C(=O)[*:1])c3nc-2c(C(=O)[*:2])c(N)c1=O; NMeV = CN[C@H](C(=O)O)C(C)C; Sar = CNCC(=O)O

Columns and labels:
[1] = test system: HepG2; assay: Cytotoxicity assay (Alamar blue), HepG2; assay type: cell-based; conditions: HepG2, 24 h
[2] = molecular target: SOX18[109] HMG fragment (Mus musculus (Mouse), UniProt P43680); assay: FP DNA-binding competition assay, SOX18[109] HMG fragment; conditions: for FP bound fraction (%) 50 μM / FP bound fraction (%) 200 μM: SOX18/DNA binding
Description: Mouse SOX HMG fragments. The HMG domains of mouse SOX2 (Group B), SOX11 (Group C), SOX6 (Group D), SOX9 (Group E), SOX18 (Group F) and SOX15 (Group G) were BP cloned from cDNA templates (IMAGE cDNA clone IDs: Sox18: 3967084; Sox9: 5354229; Sox4: 6822618) into a pDONRTM221 pENTRY vector, sequenced and recombined into a pETG20A or a pHisMBP expression plasmid using Gateway®LR Technology (Ng et al., 2012). Constructs were transformed into Escherichia coli BL21(DE3) cells (Luria-Bertani, 100 μg/ml Ampicillin).
The DNA-binding competition assay was performed in black 384-well plates, with mouse full length SOX18, or SOX-HMG fragments. All experiments were performed using a fluorescently-labelled Prox1-DNA element. Controls consisted of free labelled DNA (low FP milli-Polarization index, mP), labelled DNA in presence of protein (negative control, high mP), and labelled DNA and protein in presence of competing excess of unlabelled DNA (positive control, low mP)
The DNA-binding competition assay was performed in 25 uL, in black 384-well plates, using either 30 mM HEPES (N-2-Hydroxyethylpiperazine-N′-2-Ethanesulfonic Acid) (pH 7.5, with 100 mM KCl, 40 mM NaCl, 10 mM NH4OAc, […], 2 mM MgCl2, 0.5 mM EDTA, 0.01% NP-40) for mouse full length SOX18, or Tris-NaCl (10 mM Tris pH 8.0 and 100 mM NaCl) for SOX-HMG fragments. All experiments were performed using a 40 bp double-stranded Prox1-DNA element with 5′ fluorescein amidite (FAM) label (Sigma Proligo or InVitrogen). Optimum binding levels were obtained at 200 nM of mouse full length SOX18 and 60 nM of SOX-HMG fragment, in presence of 5 nM labelled DNA. Controls consisted of free labelled DNA (low FP milli-Polarization index, mP), labelled DNA in presence of protein (negative control, high mP), and labelled DNA and protein in presence of 400 time competing excess of unlabelled DNA (positive control, low mP). Depending on compound, final DMSO concentrations ranged from 2 to 3.33% v/v. After mixing protein, DNA probe and compound, plates were sealed and briskly agitated in the dark for 5 minutes at room temperature, 10 minutes at 37° C., and 30 minutes at room temperature, before reading fluorescence polarization on a Tecan M1000Pro (λexc=485 nm, λem=525 nm). All experiments were performed in triplicates.
In order to pinpoint the possible binding site of the small molecules, the FP assays were repeated with a shorter, DNA-binding centred protein fragment. The DNA binding domain of SOX TFs consists of the […] amino acid long High Mobility Group (HMG) box. The 109 amino-acid long SOX18 fragment (SOX18[109]) corresponds to residues 69-177 (numbering by mouse SOX18), which includes the HMG box (residues 78-149) and N- and C-terminal flanking sequences of 9 and 28 amino-acids, respectively.

[3] = molecular target: SOX18-RBPJ interaction (Homo sapiens (Human), UniProt P35713); assay: ALPHAScreen SOX18-RBPJ protein-protein interaction; assay type: binding
Excerpt: Proteins were genetically encoded with enhanced GFP (GFP), mCherry and cMyc (myc) tags, and cloned into cell free expression Gateway destination vectors: N-terminal GFP tagged (pCellFree_G03), N-terminal Cherry-cMyc (pCellFree_G07) and C-terminal Cherry-cMyc tagged (pCellFree_G08) (Gagoski et al., 2015). Human RBPJ (BC020780) and MEF2C (BC026341) Open Reading Frames (ORFs) were sourced from the Human ORFeome collection, version 1.1 and 5.1, and the Human Orfeome collaboration OCAA collection (Open Biosystems), as previously described (Sierecki et al., 2013) and cloned at the ARVEC facility, UQ Diamantina Institute. The entry clones pDONOR223 or pENTR201 vectors were exchanged with the ccdB gene in the expression plasmid by LR recombination (Life Technologies, Australia). The full-length human SOX18 gene was synthesized and the transfer to vectors was realized using Gateway PCR cloning. Translation competent Leishmania tarentolae extract (LTE) was prepared as previously described (Kovtun et al., 2011, Mureev et al., 2009). Protein pairs were co-expressed by adding 30 nM of GFP template plasmid and 60 nM of Cherry template plasmid to LTE and incubating for 3 hours at 27° C.
ALPHAScreen was performed as previously described (Sierecki et al., 2014, Sierecki et al., 2013). […] Percentage of interaction was calculated as: (I_cpd/I_DMSO)×100 from 3 independent experiments.
ALPHAScreen was performed as previously described (Sierecki et al., 2014, Sierecki et al., 2013), using the cMyc detection kit and Proxiplate-384 Plus plates (PerkinElmer). The LTE lysate co-expressing the proteins of interest was diluted in buffer A (25 mM HEPES, 50 mM NaCl). For the assay, 12.5 μL (0.4 μg) of Anti-cMyc coated Acceptor Beads in buffer B (25 mM HEPES, 50 mM NaCl, 0.001% NP40, 0.001% casein) were aliquoted into each well. This was followed by the addition of 2 μL of diluted sample, at different concentration, and 2 μL of biotin labeled GFP-Nanotrap in buffer A. The plates were incubated for 45 min at room temperature, then adding 2 μL (0.4 μg) of streptavidin-coated Donor Beads diluted in buffer A, and incubation in the dark for 45 min at room temperature. The ALPHAScreen signal was measured on an Envision Plate Reader (PerkinElmer), using manufacturer's recommended settings (λexc=680/30 nm for 0.18 s, λem=570/100 nm after 37 ms). The resulting bell-shaped curve is an indication of a positive interaction, while a flat line reflects a lack of interaction between the proteins. The measurement of each protein pair was repeated in triplicate.
I is the highest signal level (top of the hook effect curve) and Ineg is the lowest (background) signal level. The signals were normalized to the Iref signal obtained for the strongest interaction. […] Percentage of interaction was calculated as: […]
The ALPHA-Screen Assay was performed as previously described (Sierecki et al. 2014), using the cMyc detection kit and Proxiplate-384 Plus plates (PerkinElmer). A serial dilution of each sample was measured. The LTE lysate co-expressing the proteins of interest was diluted in buffer A (25 mM HEPES, 50 mM NaCl). For the assay, 12.5 μL (0.4 μg) of Anti-cMyc coated Acceptor Beads in buffer B (25 mM HEPES, 50 mM NaCl, 0.001% NP40, casein) were aliquoted into each well. This was followed by the addition of 2 μL of diluted sample and 2 μL of biotin labeled GFP-Nanotrap in buffer A. The plate was incubated for 45 min at RT. Afterward, 2 μL (0.4 μg) of Streptavidin coated Donor Beads diluted in buffer A, were added, followed by incubation in the dark for 45 min at RT. The ALPHA-Screen signal was obtained on an Envision Multilabel Plate Reader (PerkinElmer), using the manufacturer's recommended settings (excitation: 680/30 nm for 0.18 s, emission: 570/100 nm after 37 ms). The resulting bell-shaped curve is an indication of a positive interaction, while a flat line reflects a lack of interaction between the proteins. […]

[4] = test system: HEK293; assay: Cytotoxicity assay (Alamar blue), HEK293; assay type: cell-based; conditions: HEK293, 24 h
Description: Cell toxicity was determined using Alamar blue, as previously described (McMillian et al., 2002). COS-7 cells were seeded as 7000 cells per well in black wall clear bottom 96-well plates in DMEM medium (Life Technologies Australia) with 10% FBS. HepG2 and HEK293 cell lines, from ATCC, were seeded as 5000 cells per well in black wall clear bottom 384-well cell culture plates in DMEM with 1% FBS. Cells were cultured for 24 h at 37° C., 5% CO2. A serial dilution of compounds was added, with a final DMSO concentration adjusted to 0.5% v/v. Cells were incubated for another 24 h. 1 Triton X-100 was used as negative control, and 0.5% DMSO as positive control. 5 μM Alamar blue was added to each well and fluorescence was measured (λexc=560 nm, λem=590 nm) after 2 h incubation at 37° C. Data were analysed using Prism software.

[5] = test system: scrambled DNA; assay: Direct DNA-binding assay (SPR), scrambled DNA; conditions: biotinylated double-strand DNA on streptavidin chip
Description: (§1) Compounds were tested at a 1% v/v DMSO in HBS-EP buffer (10 mM HEPES, 150 mM NaCl, 3 mM EDTA, 0.005% v/v polysorbate 20, pH 7.4). The same buffer supplemented with 1% v/v DMSO was used as a mobile phase. DNA minor groove binder DAPI (4′,6-diamidino-2-phenylindole), DNA intercalator and minor groove binder actinomycin D, and DNA intercalator ethidium bromide were used as positive controls. Biotinylated (one tag per probe) double strand DNA probes were prepared using a standard annealing routine (5 min at 100° C., room temperature overnight and stored at −20° C.) of single strand anti-parallel DNA Probes purchased from Geneworks and were immobilized on CM5-SA streptavidin chips as per manufacturer's recommendations. […] All sample and control cycles were performed in triplicate. DMSO calibration was performed as per manufacturer's recommendations. After each injection, an extra flow system wash was performed with 50% v/v DMSO to avoid carryover. Experiments were run on a Biacore T200 (GE Healthcare, USA), with one flow cell kept as a reference.
(§2) From a molecular viewpoint, an inhibitor of SOX18-DNA binding could act either by interacting directly with the DNA, or the protein, or at the interface between protein and DNA. Binding of small molecules directly to the DNA, even though reported for other TFs (Leung et al., 2013), has the potential for unspecific DNA binding, leading to possible genotoxicity, mutagenicity, or carcinogenicity. For this reason, we developed a direct binding assays to determine whether the active compounds interact directly with DNA or protein. A surface plasmon resonance-based method was developed to analyse the binding of small molecules to biotinylated double stranded DNA immobilized on the surface of a streptavidin chip. The method measures the rate of binding (kon), dissociation (koff) and binding constant (KD), and was used to measure the binding to two different DNA sequences: SOX binding site consensus DNA, and scrambled DNA. Intercalating agents ethidium bromide and Actinomycin D, and the minor groove-binding agent 4′,6-diamino-2-phenylindole (DAPI) were used as positive controls for unselective DNA binding.

[6] = test system: SOX binding site consensus DNA; assay: Direct DNA-binding assay (SPR), consensus DNA; conditions: biotinylated double-strand DNA on streptavidin chip
Description: as §1, §2

Sequence of SOX18[109] HMG fragment (P43680 69-177): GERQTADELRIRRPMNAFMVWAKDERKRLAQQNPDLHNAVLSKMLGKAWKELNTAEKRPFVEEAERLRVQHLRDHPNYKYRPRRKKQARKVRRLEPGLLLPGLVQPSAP
Sequence of SOX18-RBPJ interaction (P35713 whole entry): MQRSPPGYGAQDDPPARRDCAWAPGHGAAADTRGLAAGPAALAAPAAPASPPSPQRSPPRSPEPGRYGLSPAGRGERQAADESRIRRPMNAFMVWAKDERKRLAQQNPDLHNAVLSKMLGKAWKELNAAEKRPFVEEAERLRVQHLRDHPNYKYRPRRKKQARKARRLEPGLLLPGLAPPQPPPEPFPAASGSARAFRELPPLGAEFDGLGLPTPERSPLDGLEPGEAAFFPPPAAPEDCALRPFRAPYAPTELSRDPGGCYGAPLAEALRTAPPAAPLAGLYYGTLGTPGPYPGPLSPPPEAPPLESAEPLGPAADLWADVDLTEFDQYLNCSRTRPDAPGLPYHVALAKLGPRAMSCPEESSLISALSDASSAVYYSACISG

Row | Compound | CC50 [1] | FP bound fraction (%) 50 μM [2] | FP bound fraction (%) 200 μM [2] | SOX18-RBPJ protein-protein binding inhibition at 5 μM ([3]; 5 μM) | CC50 [4] | binding to scrambled DNA (SPR) [5] | binding to consensus DNA (SPR) [6] | SOX18-DNA binding inhibition (FP, words) ([2]; SAR library, SOX18[109]) | effect on SOX18-RBPJ interaction (PPI) ([3]; ALPHAScreen)
1 | COc1cccc(C=Cc2ccc3ccccc3c2)c1C(=O)O (mixture of isomers) [Sm19, (E/Z)-2-methoxy-6-(2-(naphthalen-2-yl)vinyl)benzoic acid] | > 100 µM | 99.2 ± 6.8% | 107.6 ± 4.5% | highly active | > 100 µM | – | – | – | –
2 | N=C(N)c1ccc(-c2cc3ccc(C(=N)N)cc3[nH]2)cc1 [DAPI, 4′,6-diamidino-2-phenylindole] | – | – | – | – | – | bind to DNA | bind to DNA | – | –
3 | CC[n+]1c(-c2ccccc2)c2cc(N)ccc2c2ccc(N)cc21 [ethidium bromide] | – | – | – | – | – | bind to DNA | bind to DNA | – | –
4 | Cc1c2oc3c(C)ccc(C(=O)N[C@@H]4C(=O)N[C@H](C(C)C)C(=O)N5CCC[C@H]5C(=O)N(C)CC(=O)N(C)[C@@H](C(C)C)C(=O)O[C@@H]4C)c3nc-2c(C(=O)N[C@@H]2C(=O)N[C@H](C(C)C)C(=O)N3CCC[C@H]3C(=O)N(C)CC(=O)N(C)[C@@H](C(C)C)C(=O)O[C@@H]2C)c(N)c1=O [actinomycin D] (I: T[dV]P[Sar][NMeV] / II: T[dV]P[Sar][NMeV]; ester I:1-I:C, II:1-II:C; linker I:N-II:N via Actinocin(9to1)) | – | – | – | – | – | bind to DNA | bind to DNA | – | –
5 | O=C(O)c1c(O)cccc1C=Cc1ccc2ccccc2c1 (mixture of isomers) [Sm20, (E/Z)-2-hydroxy-6-(2(naphthalen-2-yl)vinyl)benzoic acid] | 71.3 µM | 10.3 ± 4.1% | 11.9 ± 8.5% | – | 97.1 µM | – | – | displayed SOX18-DNA binding inhibiting activity; also recorded: inhibit both DNA and PPI | inhibit both DNA and PPI
